The record followed here is patent US11845752B2, “Substituted imidazo[1,5-a]pyrazines for the treatment of hepatitis B” (ALIGOS THERAPEUTICS, INC., priority 2020, dated 2023).

Where two headings read alike, the source gives them in different places.

For this assay, the system named is HBV. Nature of the assay: HBV-DNA antiviral assay using HepG2.117 cells (intracellular HBV DNA by qPCR). The settings on record: HBV DNA inhibition, 3 days incubation, read-out: EC50. It is filed as cell-based, HBV genotype D. Summed up:
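Read-outs: cell-lysate HBV DNA copies by qPCR (interpolated from gBlock standard) and parallel cellular ATP luminescence for CC50, both normalised to 2% DMSO controls and fitted by non-linear regression. HepG2.117 Tet-off genotype D HBV cells, induced by doxycycline removal, exposed 3 days to 4-fold serial dilutions.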
In general terms: Quantitative PCR measures a nucleic acid by following its amplification.

[1] abbreviates: Hepatitis B virus, HepG2.117, 72 h.

As a reminder, the EC50 is the concentration giving half of the maximal effect. As to `CC1Cn2c(c(C(=O)NCc3ccccc3-c3ncccn3)n(-c3ccc4c(cnn4C[C@@H](O)C(F)(F)F)c3)c2=O)CN1C(=O)c1ccc(Br)c(C(F)(F)F)c1` (single isomer, unassigned) [Compound 101a], the concentration for a half-maximal effect (EC50) under setting [1] fell in the range of 50 to 500 nM. As to `CN[C@H](C)COc1ccc(-n2c(C(=O)NCc3ccccc3-c3ncccn3)c3n(c2=O)C[C@@H](C)N(C(=O)c2ccc(Br)c(C(F)(F)F)c2)C3)cc1` (single isomer, unassigned) [Compound 95a], the EC50 under setting [1] fell in the range of 50 to 500 nM. As for `C[C@H](O)COc1ccc(-n2c(C(=O)NCc3ccccc3-c3ccncn3)c3n(c2=O)C[C@H](C)N(C(=O)c2ccc(Br)c(C(F)(F)F)c2)C3)cc1` (mixture of isomers) [Compound 58b, (6SR)-7-[4-bromo-3-(trifluoromethyl)benzoyl]-2-[4-[(2S)-2-hydroxypropoxy]phenyl]-6-methyl-3-oxo-N-[(2-pyrimidin-4-ylphenyl)methyl]-6,8-dihydro-5H-imidazo[1,5-a]pyrazine-1-carboxamide], under setting [1], the EC50 was less than 50 nM. Regarding `CC1Cn2c(c(C(=O)NCc3ccccc3-c3ccncn3)n(-c3ccc(OC4CC4)cc3)c2=O)CN1C(=O)c1ccc(Br)c(C(F)(F)F)c1` (single isomer, unassigned) [Compound 13b, 7-[4-bromo-3-(trifluoromethyl)benzoyl]-2-[4-(cyclopropoxy)phenyl]-6-methyl-3-oxo-N-[(2-pyrimidin-4-ylphenyl)methyl]-6,8-dihydro-5H-imidazo[1,5-a]pyrazine-1-carboxamide], the concentration for a half-maximal effect (EC50) was less than 50 nM. Regarding `CC1Cn2c(c(C(=O)NCc3ccccc3-c3ccn(C)n3)n(-c3ccc(OC4CC4)cc3)c2=O)CN1C(=O)c1ccc(Br)c(Cl)c1` (single isomer, unassigned) [Compound 22b], the EC50 was less than 50 nM. Turning to `CC1Cn2c(c(C(=O)NCc3c(F)cccc3-c3nccc(N)n3)n(-c3ccc(OC4CC4)cc3)c2=O)CN1C(=O)c1ccc(Br)c(Cl)c1` (single isomer, unassigned) [Compound 31a], the EC50 under setting [1] was 50 to 500 nM. Consider `CC(C)(O)COc1ccc(-n2c(C(=O)NCc3ccccc3)c3n(c2=O)CCN(C(=O)c2ccc(Br)c(Cl)c2)C3)cc1` [Compound 114, N-benzyl-7-(4-bromo-3-chloro-benzoyl)-2-[4-(2-hydroxy-2-methyl-propoxy)phenyl]-3-oxo-6,8-dihydro-5H-imidazo[1,5-a]pyrazine-1-carboxamide], for which the EC50 under setting [1] fell in the range of 50 to 500 nM. For the molecule `CC1Cn2c(c(C(=O)NCc3ccccc3-c3ccncn3)n(-c3ccc(OC4CC4)cc3)c2=O)CN1C(=O)c1ccc(Br)c(Cl)c1` (single isomer, unassigned) [Compound 9b, 7-(4-bromo-3-chloro-benzoyl)-2-[4-(cyclopropoxy)phenyl]-6-methyl-3-oxo-N-[(2-pyrimidin-4-ylphenyl)methyl]-6,8-dihydro-5H-imidazo[1,5-a]pyrazine-1-carboxamide], the concentration giving a half-maximal response (EC50) is less than 50 nM.

On to `CC1(O)CCN(c2ccc(-n3c(C(=O)NCc4ccccc4)c4n(c3=O)CCN(C(=O)c3ccc(Br)c(Cl)c3)C4)cc2)C1` (single isomer, unassigned) [Compound 115b], for which the 50% effective concentration (EC50) lay in the range of 50 to 500 nM. As for `C[C@@H]1Cn2c(c(C(=O)NCc3ccccc3-c3ccccn3)n(-c3ccc(OC[C@@](C)(O)C(F)(F)F)cc3)c2=O)CN1C(=O)c1ccc(Br)c(C(F)(F)F)c1` (stereo in doubt) [Compound 89a, rac-(6R)-7-[4-bromo-3-(trifluoromethyl)benzoyl]-6-methyl-3-oxo-N-[[2-(2-pyridyl)phenyl]methyl]-2-[4-[rac-(2R)-3,3,3-trifluoro-2-hydroxy-2-methyl-propoxy]phenyl]-6,8-dihydro-5H-imidazo[1,5-a]pyrazine-1-carboxamide], the EC50 under setting [1] is less than 50 nM. For the molecule `CC1Cn2c(c(C(=O)NCc3ccccc3-c3ncccn3)n(-c3ccc(OC4CC4)cc3)c2=O)CN1C(=O)c1ccc(Br)c(C(F)(F)F)c1` (single isomer, unassigned) [Compound 59b], the EC50 is less than 50 nM. In the case of `CC1Cn2c(c(C(=O)NCc3ccccc3-c3ccncn3)n(-c3ccc(N4CCO[C@H](C(F)(F)F)C4)cc3)c2=O)CN1C(=O)c1ccc(Br)c(C(F)(F)F)c1` (mixture of isomers) [Compound 52a, rac-(6S)-7-[4-bromo-3-(trifluoromethyl)benzoyl]-6-methyl-3-oxo-N-[(2-pyrimidin-4-ylphenyl)methyl]-2-[4-[(2S)-2-(trifluoromethyl)morpholin-4-yl]phenyl]-6,8-dihydro-5H-imidazo[1,5-a]pyrazine-1-carboxamide], under setting [1], the EC50 was 50 to 500 nM. As to `CC1Cn2c(c(C(=O)NCc3ccccc3-c3ccncn3)n(-c3ccc4oc(N)nc4c3)c2=O)CN1C(=O)c1ccc(Br)c(Cl)c1` (single isomer, unassigned) [Compound 92a], the 50% effective concentration (EC50) under setting [1] lay within 500 to 5000 nM. Turning to `C[C@H](O)COc1ccc(-n2c(C(=O)NCc3ccccc3-c3ncccn3)c3n(c2=O)C[C@H](C)N(C(=O)c2ccc(Br)c(C(F)(F)F)c2)C3)cc1` (racemic) [Compound 65b, (6SR)-7-[4-bromo-3-(trifluoromethyl)benzoyl]-2-[4-[(25)-2-hydroxypropoxy]phenyl]-6-methyl-3-oxo-N-[(2-pyrimidin-2-ylphenyl)methyl]-6,8-dihydro-5H-imidazo[1,5-a]pyrazine-1-carboxamide], the 50% effective concentration (EC50) under setting [1] lay in the range of 50 to 500 nM.

As to `C#Cc1cc(C(=O)N2Cc3c(C(=O)NCc4ccccc4-c4ccncn4)n(-c4ccc(OC5CC5)cc4)c(=O)n3CC2C)ccc1Br` (single isomer, unassigned) [Compound 20a], the EC50 lay within 500 to 5000 nM. Regarding `CC1Cn2c(c(C(=O)NCc3ccccc3-c3ccn(C)n3)n(-c3ccc(OC4CC4)cc3)c2=O)CN1C(=O)c1ccc(Br)c(Cl)c1` (single isomer, unassigned) [Compound 22a], under setting [1], the EC50 was 50 to 500 nM. Turning to `CC1Cn2c(c(C(=O)NCc3ccccc3-c3cc(N)cnn3)n(-c3ccc(OC4CC4)cc3)c2=O)CN1C(=O)c1ccc(Br)c(C(F)(F)F)c1` (single isomer, unassigned) [Compound 43b], the EC50 was in the range of 50 to 500 nM. For the molecule `CC1Cn2c(c(C(=O)NCc3ccccc3-c3ncccn3)n(-c3ccc(OC[C@H](C)O)cc3)c2=O)CN1C(=O)c1ccc(Br)c(C(F)(F)F)c1` (single isomer, unassigned) [Compound 65a], the EC50 under setting [1] was less than 50 nM. On the same count and under the same terms, to `CC1Cn2c(c(C(=O)NCc3c(F)cccc3-c3cccc(N)n3)n(-c3ccc(OC4CC4)cc3)c2=O)CN1C(=O)c1ccc(Br)c(C(F)(F)F)c1` (single isomer, unassigned) [Compound 36a] belongs less than 50 nM. `C[C@@H]1CN(c2ccc(-n3c(C(=O)NCc4ccccc4)c4n(c3=O)CCN(C(=O)c3ccc(Br)c(Cl)c3)C4)cc2)CCN1C` [Compound 116, N-benzyl-7-(4-bromo-3-chloro-benzoyl)-3-oxo-2-[4-[(3R)-3,4-dimethylpiperazin-1-yl]phenyl]-6,8-dihydro-5H-imidazo[1,5-a]pyrazine-1-carboxamide]: under setting [1], the EC50 lay in the range of 50 to 500 nM. On to `Cc1nnc(-c2cccc(F)c2CNC(=O)c2c3n(c(=O)n2-c2ccc(OC4CC4)cc2)CC(C)N(C(=O)c2ccc(Br)c(Cl)c2)C3)o1` (single isomer, unassigned) [Compound 45b], for which the EC50 fell in the range of 50 to 500 nM. Take `C[C@H]1Cn2c(c(C(=O)NCc3ccccc3-c3ncccn3)n(-c3ccc4nn(C[C@@H](O)C(F)(F)F)cc4c3)c2=O)CN1C(=O)c1ccc(Br)c(C(F)(F)F)c1` (mixture of isomers) [Compound 105b, (6SR)-7-[4-bromo-3-(trifluoromethyl)benzoyl]-6-methyl-3-oxo-N-[(2-pyrimidin-2-ylphenyl)methyl]-2-[2-[(2R)-3,3,3-trifluoro-2-hydroxy-propyl]indazol-5-yl]-6,8-dihydro-5H-imidazo[1,5-a]pyrazine-1-carboxamide]: under setting [1], the EC50 lay in the range of 50 to 500 nM. Take `COc1nccc(-c2ccccc2CNC(=O)c2c3n(c(=O)n2-c2ccc(OC4CC4)cc2)CC(C)N(C(=O)c2ccc(Br)c(C(F)(F)F)c2)C3)n1` (single isomer, unassigned) [Compound 38b]: the half-maximal effective concentration (EC50) is less than 50 nM.

Consider `CC1Cn2c(c(C(=O)NCc3ccccc3-c3cccc(N)n3)n(-c3ccc(OC4CC4)cc3)c2=O)CN1C(=O)c1ccc(Br)c(C(F)(F)F)c1` (single isomer, unassigned) [Compound 27b], for which the concentration giving a half-maximal response (EC50) is less than 50 nM.

For `O=C(NCc1ccccc1-c1ncccn1)c1c2n(c(=O)n1-c1ccc(OC3CC3)cc1)C[C@@H](COCc1ccccc1)N(C(=O)c1ccc(Br)c(C(F)(F)F)c1)C2` (stereo in doubt) [Compound 130, 6-(benzyloxymethyl)-7-[4-bromo-3-(trifluoromethyl)benzoyl]-2-[4-(cyclopropoxy)phenyl]-3-oxo-N-[(2-pyrimidin-2-ylphenyl)methyl]-6,8-dihydro-5H-imidazo[1,5-a]pyrazine-1-carboxamide], the EC50 under setting [1] lay in the range of 500 to 5000 nM. Take `CC1Cn2c(c(C(=O)NCc3ccccc3-c3ccncn3)n(-c3ccc(N4CCC5(CN(C)C5)C4)cc3)c2=O)CN1C(=O)c1ccc(Br)c(C(F)(F)F)c1` (single isomer, unassigned) [Compound 88a]: under setting [1], the EC50 is less than 50 nM. As to `C[C@H]1Cn2c(c(C(=O)NCc3ccccc3-c3ccncn3)n(-c3ccc(OC[C@@](C)(O)C(F)(F)F)cc3)c2=O)CN1C(=O)c1ccc(Br)c(C(F)(F)F)c1` (stereo in doubt) [Compound 82b, rac-(6S)-7-[4-bromo-3-(trifluoromethyl)benzoyl]-6-methyl-3-oxo-N-[(2-pyrimidin-4-ylphenyl)methyl]-2-[4-[rac-(2R)-3,3,3-trifluoro-2-hydroxy-2-methyl-propoxy]phenyl]-6,8-dihydro-SH-imidazo[1,5-a]pyrazine-1-carboxamide], the concentration for a half-maximal effect (EC50) under setting [1] was less than 50 nM.

As for `CC1Cn2c(c(C(=O)NCc3ccccc3-c3ccc(N)nn3)n(-c3ccc(OC4CC4)cc3)c2=O)CN1C(=O)c1ccc(Br)c(Cl)c1` (single isomer, unassigned) [Compound 10a, N-[[2-(6-aminopyridazin-3-yl)phenyl]methyl]-7-(4-bromo-3-chloro-benzoyl)-2-[4-(cyclopropoxy)phenyl]-6-methyl-3-oxo-6,8-dihydro-5H-imidazo[1,5-a]pyrazine-1-carboxamide], the EC50 lay in the range of 500 to 5000 nM.
